Results published in PMC7391683, “Two glyoxylate reductase isoforms are functionally redundant but required under high photorespiration conditions in rice” (BMC Plant Biology, 2020).

How the values were obtained:
[1] = molecular target: T1, OsGR1 (Oryza sativa, UniProt Q84VC8); experiment: NAD(P)H oxidation; slopes of reciprocal plots against oxalate; assay type: biochemical; conditions: read-out: Ki(oxalate) (mM) / Glyoxylate as substrate NADPH as cofactor
T1 construct: full-length, 6xHis-tag (pCold vector), E. coli Rosetta (DE3), Ni-IDA purified; subunit about 30 kDa on SDS-PAGE
T1 sequence (Q84VC8 1-293): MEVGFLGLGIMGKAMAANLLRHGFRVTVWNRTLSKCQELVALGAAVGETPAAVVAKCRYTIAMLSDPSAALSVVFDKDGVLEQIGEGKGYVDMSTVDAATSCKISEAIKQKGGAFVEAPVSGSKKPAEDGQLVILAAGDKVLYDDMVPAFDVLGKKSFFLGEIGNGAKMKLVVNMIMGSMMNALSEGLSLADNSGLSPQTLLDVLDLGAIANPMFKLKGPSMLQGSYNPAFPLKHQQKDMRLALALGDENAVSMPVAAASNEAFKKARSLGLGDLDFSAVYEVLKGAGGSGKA
Source text: NAD(P)H oxidation; slopes of reciprocal plots against oxalate on OsGR1

[2] = molecular target: T2, OsGR2 (Oryza sativa, UniProt Q656T5); experiment: NADH oxidation, Lineweaver-Burk; assay type: biochemical; conditions: glyoxylate fixed, pH 7.4, 30 °C
T2 construct: gene Os01g0574600; subunit about 37 kDa on SDS-PAGE
T2 sequence (Q656T5 45-341): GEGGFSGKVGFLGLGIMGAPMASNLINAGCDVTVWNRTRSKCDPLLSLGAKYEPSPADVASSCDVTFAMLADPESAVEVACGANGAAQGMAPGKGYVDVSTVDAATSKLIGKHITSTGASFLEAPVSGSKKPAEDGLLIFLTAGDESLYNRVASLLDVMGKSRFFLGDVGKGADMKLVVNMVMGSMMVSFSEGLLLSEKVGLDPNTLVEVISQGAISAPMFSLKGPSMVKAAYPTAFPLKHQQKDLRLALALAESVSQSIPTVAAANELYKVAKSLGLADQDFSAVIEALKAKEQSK
Source text: NADH oxidation, Lineweaver-Burk on OsGR2

[3] = molecular target: T2, OsGR2; experiment: NADPH oxidation, Lineweaver-Burk; assay type: biochemical; conditions: pH 7.4, 30 °C
Source text: NADPH oxidation, Lineweaver-Burk on OsGR2

[4] = substrate: NC(=O)C1=CN([C@@H]2O[C@H](COP(=O)(O)OP(=O)(O)OC[C@H]3O[C@@H](n4cnc5c(N)ncnc54)[C@H](OP(=O)(O)O)[C@@H]3O)[C@@H](O)[C@H]2O)C=CC1; experiment: NADPH oxidation, Lineweaver-Burk; assay type: biochemical, Oryza sativa; conditions: glyoxylate fixed, pH 7.4, 30 °C, varied: cofactor
Source text: (§1) NADPH oxidation, Lineweaver-Burk on OsGR1

[5] = substrate: O=CC(=O)O; experiment: NADPH oxidation, Lineweaver-Burk; assay type: biochemical, Oryza sativa; conditions: NADPH fixed, pH 7.4, 30 °C
Source text: as §1

[6] = substrate: NC(=O)C1=CN([C@@H]2O[C@H](COP(=O)(O)OP(=O)(O)OC[C@H]3O[C@@H](n4cnc5c(N)ncnc54)[C@H](O)[C@@H]3O)[C@@H](O)[C@H]2O)C=CC1; experiment: NADH oxidation, Lineweaver-Burk; assay type: biochemical, Oryza sativa; conditions: glyoxylate fixed, pH 7.4, 30 °C, varied: cofactor
Source text: NADH oxidation, Lineweaver-Burk on OsGR1

**Q.** With `O=C(O)C(=O)O` [oxalate] as the molecule, how does the Ki [1] read?
**A.** The Ki was 21.2 ± 4.3 mM.

**Q.** With `NC(=O)C1=CN([C@@H]2O[C@H](COP(=O)(O)OP(=O)(O)OC[C@H]3O[C@@H](n4cnc5c(N)ncnc54)[C@H](O)[C@@H]3O)[C@@H](O)[C@H]2O)C=CC1` [NADH] as the molecule, how does the Km [2] read?
**A.** Its Km is 404 ± 66.5 µM.

**Q.** For `O=CC(=O)O` [glyoxylate], which Km ([3]; NADPH fixed) is on record?
**A.** The Km was 72.1 ± 5.3 µM.

**Q.** `NC(=O)C1=CN([C@@H]2O[C@H](COP(=O)(O)OP(=O)(O)OC[C@H]3O[C@@H](n4cnc5c(N)ncnc54)[C@H](OP(=O)(O)O)[C@@H]3O)[C@@H](O)[C@H]2O)C=CC1` [NADPH] was tested. Which Km ([3]; glyoxylate fixed) did it give?
**A.** The Km was 53 ± 4.6 µM.

B1: OsGR1 (Oryza sativa Japonica Group) (protein)
chain: T1 sequence (Q84VC8 1-293)
notes: full-length, 6xHis-tag (pCold vector), E. coli Rosetta (DE3), Ni-IDA purified; subunit about 30 kDa on SDS-PAGE
**Q.** Which Km [4] does the source give for B1 here?
**A.** Its Km is 17.6 ± 3.1 µM.

**Q.** What about the Km [5] of the same molecule?
**A.** The Km was 30.4 ± 3.5 µM.

**Q.** What about the Km [6] of the same molecule?
**A.** Its Km is 420.2 ± 50.5 µM.
